From ChEMBL document CHEMBL2311354, “C-3 halo and 3-methyl substituted 5'-nor-3-deazaaristeromycins: synthesis and antiviral properties” (Bioorg Med Chem, 2013)
Activity calls are given as the source filed them. The rule behind the calls is not given here.

How the values were obtained:
Cowpox virus = test: Antiviral activity against Cowpox virus infected in human HFF cells assessed as reduction of viral replication; format: functional, organism-based
Enterovirus = test: Antiviral activity against Rhinovirus infected in human HeLa Ohio1 cells assessed as reduction of viral replication; format: functional, organism-based
Yellow fever virus = test: Antiviral activity against Yellow fever virus infected in african green monkey Vero cells assessed as reduction of viral replication; format: functional, organism-based
West Nile virus = test: Antiviral activity against West Nile virus infected in african green monkey Vero cells assessed as reduction of viral replication; format: functional, organism-based
Dengue virus = test: Antiviral activity against Dengue virus infected in african green monkey Vero cells assessed as reduction of viral replication; format: functional, organism-based
[1] = Selectivity index, ratio of CC50 for MDCK cells to EC50 for influenza B virus; format: toxicity, cell-based; details: dog, read-out: Ratio CC50/EC50
[2] = Selectivity index, ratio of CC50 for human HFF cells to EC50 for Varicella-zoster virus; format: toxicity, cell-based; details: read-out: Ratio CC50/EC50
[3] = Selectivity index, ratio of CC50 for human HepG2.215 cells to EC50 for Hepatitis B virus; format: toxicity; details: read-out: Ratio CC50/EC50
[4] = Selectivity index, ratio of CC50 for human HFF cells to EC50 for human cytomegalovirus; format: toxicity, cell-based; details: read-out: Ratio CC50/EC50
Rift Valley fever virus = test: Antiviral activity against Rift Valley fever virus infected in african green monkey Vero 76 cells assessed as reduction of viral replication; format: functional, organism-based
[5] = Cytotoxicity against african green monkey Vero cells assessed as concentration required to cause microscopically alternation of cellular morphology; format: cell-based; details: chlorocebus sabaeus
[6] = Cytotoxicity against human HEL cells assessed as concentration required to cause microscopically alternation of cellular morphology; format: cell-based
[7] = Cytotoxicity against MDCK cells assessed as reduction of cell viability; format: cell-based, Canis lupus familiaris; details: dog
Tacaribe virus = test: Antiviral activity against Tacaribe virus infected in african green monkey Vero 76 cells assessed as reduction of viral replication; format: functional, organism-based; details: Mammarenavirus tacaribeense
[8] = Cytotoxicity against human HepG2.215 cells assessed as reduction of cell viability; format: cell-based, HepG2 2.2.15
[9] = Cytotoxicity against african green monkey CV1 cells assessed as reduction of cell viability; format: cell-based, CV-1; details: chlorocebus aethiops
[10] = Cytotoxicity against human HFF cells assessed as reduction of cell viability; format: cell-based
Influenza B virus = test: Antiviral activity against influenza B virus infected in MDCK cells assessed as reduction of viral replication; format: functional, organism-based
Human alphaherpesvirus 3 = test: Antiviral activity against Varicella-zoster virus infected in human HFF cells assessed as reduction of viral replication; format: functional, organism-based
[11] = system: Mammalian orthoreovirus 1; test: Antiviral activity against Reovirus 1 infected in african green monkey Vero cells assessed as reduction of viral replication; format: functional, organism-based
Measles morbillivirus = test: Antiviral activity against Measles virus infected in african green monkey CV1 cells assessed as reduction of viral replication; format: functional, organism-based; details: CV-1
Human respirovirus 3 = test: Antiviral activity against Human parainfluenzae virus 3 infected in african green monkey Vero cells assessed as reduction of viral replication; format: functional, organism-based
Hepatitis B virus = test: Antiviral activity against Hepatitis B virus infected in human HepG 2.215 cells assessed as reduction of viral replication; format: functional, organism-based
[12] = system: Vesicular stomatitis virus; test: Antiviral activity against Vesicular stomatitis virus infected in human HEL cells assessed as reduction of viral replication; format: functional, organism-based
Vaccinia virus = test: Antiviral activity against Vaccinia virus infected in human HEL cells assessed as reduction of viral replication; format: functional, organism-based; details: Orthopoxvirus vaccinia
Cytomegalovirus = test: Antiviral activity against human cytomegalovirus infected in human HFF cells assessed as reduction of viral replication; format: functional, organism-based
Punta Toro virus = test: Antiviral activity against Punta Toro virus infected in african green monkey Vero cells assessed as reduction of viral replication; format: functional, organism-based
[13] = system: Human immunodeficiency virus 2; test: Antiviral activity against HIV2 infected in human CEM cells assessed as reduction of viral replication; format: functional, organism-based; details: CCRF-CEM
[14] = system: Human immunodeficiency virus 1; test: Antiviral activity against HIV1 infected in human CEM cells assessed as reduction of viral replication; format: functional, organism-based; details: CCRF-CEM
Influenza A virus [15] = test: Antiviral activity against influenza A H3N2 infected in MDCK cells assessed as reduction of viral replication; format: functional, organism-based
Feline coronavirus = test: Antiviral activity against Feline coronavirus infected in cat CRFK cells assessed as reduction of viral replication; format: functional, organism-based
Influenza A virus [16] = test: Antiviral activity against influenza A H1N1 infected in MDCK cells assessed as reduction of viral replication; format: functional, organism-based
Human alphaherpesvirus 2 = test: Antiviral activity against HSV2 infected in human HEL cells assessed as reduction of viral replication; format: functional, organism-based
Human alphaherpesvirus 1 = test: Antiviral activity against HSV1 infected in human HEL cells assessed as reduction of viral replication; format: functional, organism-based
Sindbis virus = test: Antiviral activity against Sindbis virus infected in african green monkey Vero cells assessed as reduction of viral replication; format: functional, organism-based
Coxsackievirus B4 = test: Antiviral activity against Human coxsackievirus B4 infected in african green monkey Vero cells assessed as reduction of viral replication; format: functional, organism-based
Human gammaherpesvirus 4 = test: Antiviral activity against Epstein-Barr virus infected in human HFF cells assessed as reduction of viral replication; format: functional, organism-based
[17] = system: Respiratory syncytial virus; test: Antiviral activity against Respiratory syncytial virus infected in monkey MA104 cells assessed as reduction of viral replication; format: functional, organism-based
unidentified adenovirus = test: Antiviral activity against Adenovirus infected in human A549 cells assessed as reduction of viral replication; format: functional, organism-based
Influenza A virus [18] = test: Antiviral activity against influenza A virus H5N1 infected in MDCK cells assessed as reduction of viral replication; format: functional, organism-based

SMILES | Activity (Cowpox virus) | Activity (Enterovirus) | Activity (Yellow fever virus) | Activity (West Nile virus) | Activity (Dengue virus) | Activity (Rift Valley fever virus) | Activity (Tacaribe virus) | Activity [13] | Activity [14] | Activity (Influenza A virus [15]) | Activity (Feline coronavirus) | Activity (Influenza A virus [16]) | Activity (Human alphaherpesvirus 2) | Activity (Human alphaherpesvirus 1) | Activity (Sindbis virus) | Activity (Coxsackievirus B4) | Activity (Human gammaherpesvirus 4) | Activity [17] | Activity (unidentified adenovirus) | further results
Nc1ncc(Br)c2c1ncn2[C@@H]1C[C@H](O)[C@@H](O)[C@H]1O | inactive | inactive | inactive | inactive | inactive | inactive | inactive | inactive | inactive | inactive | inactive | inactive | inactive | inactive | inactive | inactive | inactive | inactive | inactive | selectivity ratio [1]: > 100; selectivity ratio [2]: > 2630; selectivity ratio [3]: > 454; selectivity ratio [4]: > 175; MCC [5]: > 8 µM; MCC [6]: > 200 µM; CC50 [7]: > 273 µM; CC50 [8]: > 10 µM; CC50 [9]: > 273 µM; CC50 [10]: > 300 µM; EC50 (Influenza B virus): 27 µM; EC50 (Human alphaherpesvirus 3; Human alphaherpesvirus 3, HFF): 0.11 µM; EC50 ([11]; Mammalian orthoreovirus 1, Vero): 1.6 µM; EC50 (Measles morbillivirus): > 273 µM; EC50 (Human respirovirus 3; Human respirovirus 3, Vero): 8 µM; EC50 (Hepatitis B virus; HepG2.2.15): 0.022 µM; EC50 [12]: > 200 µM; EC50 (Vaccinia virus): 24 µM; EC50 (Cytomegalovirus; Human betaherpesvirus 5, HFF): 1.7 µM; EC50 (Punta Toro virus): > 8 µM
Cc1cnc(N)c2ncn([C@@H]3C[C@H](O)[C@@H](O)[C@H]3O)c12 | inactive | inactive | inactive | inactive | inactive | inactive | inactive | inactive | inactive | inactive | inactive | inactive | inactive | inactive | inactive | inactive | inactive | inactive | inactive | Activity (Influenza B virus): inactive; Activity (Influenza A virus [18]): inactive; Activity (Human alphaherpesvirus 3): inactive; Activity [11]: inactive; Activity (Measles morbillivirus): inactive; Activity (Human respirovirus 3): inactive; Activity (Hepatitis B virus): inactive; Activity [12]: inactive; Activity (Vaccinia virus): inactive; Activity (Cytomegalovirus): inactive; Activity (Punta Toro virus): inactive
